Data: publication PMC9594046, “Identification of Histone Peptide Binding Specificity and Small-Molecule Ligands for the TRIM33α and TRIM33β Bromodomains” (ACS Chemical Biology, 2022)
Substitutions are numbered along the chain they refer to.

Tests used:
TRIM24 PHD-BRD = target: T1, TRIM24 PHD-BRD (Homo sapiens, UniProt O15164); test: AlphaScreen dose-response displacement of biotinylated H3 peptide; conditions: TRIM24 IC50 (AlphaScreen)
T1 sequence (O15164 with tags, fused parts or gaps): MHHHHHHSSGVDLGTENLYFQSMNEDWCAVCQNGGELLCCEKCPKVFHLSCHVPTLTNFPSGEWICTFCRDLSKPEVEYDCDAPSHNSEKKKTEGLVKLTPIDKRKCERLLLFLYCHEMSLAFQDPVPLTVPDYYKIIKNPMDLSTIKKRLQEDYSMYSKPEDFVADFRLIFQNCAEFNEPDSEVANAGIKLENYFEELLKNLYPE
Procedure: (§5) To establish an AlphaScreen assay,[13],[50],[51] the PHD-BRD cassettes of TRIM24 and both TRIM33 isoforms were expressed with an N-terminal His6 tag attached (CD spectra for these constructs are shown in Figure S9).
(§6) Assay buffer was freshly prepared each day by supplementing HEPES buffer with BSA, the pH was
(§7) adjusted to 7.6 and filter sterilized through a 0.22 µm filter, and stored at 4 °C until use.
(§8) steps, the plate was sealed, shaken for 10 sec at 600 rpm on a plate oscillator, and incubated at room
(§9) in triplicate, as point concentrations or serial buffer dilutions from 50 mM DMSO solutions.
(§10) peptide mix (7 µL) was dispensed into each well using a Thermo-Fisher electronic multi-channel
(§11) pipette, and incubated for 30 min. AlphaScreen bead mix (8 µL; 25 µg/mL of acceptor and donor beads)
(§12) was added to each well, taking adequate precautions to avoid light exposure, before being incubated for
(§13) 1 h. The plate was read using a Synergy™ 2 MultiMode Microplate Reader using the built-in
(§14) Single shot screening was performed in triplicate.
(§15) <0.5% DMSO. Inhibition is reported as a reduction in signal arising from peptide-bromodomain
(§16) interaction, normalised to a DMSO control. Signal response curves were obtained for peptides or
(§17) compounds in triplicate, with serial 1:2 dilutions. Samples containing buffer or DMSO in place of
(§18) compound were included in all assays for normalisation. Data were processed by fitting a four-
(§19) parameter equation shown below to calculate IC50 values using GraFit version 7.0.32 or GraphPad Prism
(§20) 𝑌 = 𝑀𝑖𝑛𝑖𝑚𝑢𝑚 + 𝑀𝑎𝑥𝑖𝑚𝑢𝑚 − 𝑚𝑖𝑛𝑖𝑚𝑢𝑚 ,𝑤ℎ𝑒𝑟𝑒 𝑋 = log (𝑐𝑜𝑚𝑝𝑜𝑢𝑛𝑑 𝑐𝑜𝑛𝑐𝑒𝑛𝑡𝑟𝑎𝑡𝑖𝑜𝑛) 1 + 10("#$%&!"’()(*+,, .,/01)
(§21) Assay buffer was prepared as above. For incubation steps, the plate was sealed, shaken for 10 sec at
(§22) 600 rpm on a plate oscillator, and incubated at room temperature in the dark. Peptides (5 µL) were
(§23) dilutions from 100 µM HEPES buffer stock solutions. Protein (7 µL) was dispensed into each well
(§24) using a Thermo-Fisher electronic multi-channel pipette, and incubated for 30 min. AlphaScreen bead
(§25) mix (8 µL; 25 µg/mL of acceptor and donor beads) was added to each well, avoiding light exposure,
(§26) before being incubated for 1 h. The plate was read using a Synergy™ 2 MultiMode Microplate Reader
(§27) Ni2+ chelate acceptor and streptavidin donor beads were prepared as a mixture in a 1:300 or 1:400
(§28) dilution as required (0.005–0.007 mg/mL FAC); biotinylated peptide employed, and final assay
(§29) concentrations were as detailed in table below. Assay well volume was 20 µL.
(§30) Peptides were supplied as 1–9 mg quantities with >95% purity (as determined by HPLC; Cambridge
(§31) Research Biochemicals or Genscript). Residual water and counter ions were predicted to comprise 20%
(§32) of the net mass, and peptides were dissolved to 10, 1.0, and 0.1 mM stocks in buffer (50 mM HEPES,
(§33) 500 mM NaCl; pH 7.6) before being stored at -80 °C in 5 µL aliquots. A terminal tyrosine residue was
(§34) incorporated into the peptide structure to allow for accurate quantification of concentration.

TRIM33α PHD-BRD = target: T2, TRIM33α PHD-BRD (Homo sapiens, UniProt Q9UPN9); test: as above; conditions: TRIM33α IC50 (AlphaScreen)
T2 sequence (Q9UPN9 888-1127): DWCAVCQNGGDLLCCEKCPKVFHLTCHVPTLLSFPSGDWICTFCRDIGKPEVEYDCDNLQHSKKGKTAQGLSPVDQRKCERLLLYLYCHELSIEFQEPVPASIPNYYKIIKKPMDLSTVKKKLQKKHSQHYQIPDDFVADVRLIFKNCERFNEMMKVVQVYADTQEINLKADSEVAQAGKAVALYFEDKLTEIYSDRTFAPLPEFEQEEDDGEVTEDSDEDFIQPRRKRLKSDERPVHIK
Procedure: as §5, §6, §7, §8, §9, §10, §11, §12, §13, §14, §15, §16, §17, §18, §19, §20, §21, §22, §23, §24, §25, §26, §27, §28, §29, §30, §31, §32, §33, §34

TRIM33β PHD-BRD = target: T3, TRIM33β PHD-BRD (Homo sapiens, UniProt Q9UPN9); test: as above
T3 sequence (Q9UPN9 888-1110 isoform Q9UPN9-2 limits assumed): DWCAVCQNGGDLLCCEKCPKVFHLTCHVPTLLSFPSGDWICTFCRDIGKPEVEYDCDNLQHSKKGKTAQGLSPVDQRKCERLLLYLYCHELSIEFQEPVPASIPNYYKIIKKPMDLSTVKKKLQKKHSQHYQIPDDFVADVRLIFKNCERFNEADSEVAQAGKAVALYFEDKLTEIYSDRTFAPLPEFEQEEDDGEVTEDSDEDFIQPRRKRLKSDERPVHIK
Procedure: as §5, §6, §7, §8, §9, §10, §11, §12, §13, §14, §15, §16, §17, §18, §19, §20, §21, §22, §23, §24, §25, §26, §27, §28, §29, §30, §31, §32, §33, §34

TRIM24 N980F = target: T4, TRIM24 N980F (Homo sapiens, UniProt O15164, N980F); test: Qualitative WaterLOGSY binding; set-up: key: ✓: √ is assigned to compounds that showed binding; ? is assigned when the result was ambiguous; × is assigned when no-binding was observed; conditions: 500 µM compound, 20 µM protein
T4 sequence (O15164 825-1007 N980F limits assumed): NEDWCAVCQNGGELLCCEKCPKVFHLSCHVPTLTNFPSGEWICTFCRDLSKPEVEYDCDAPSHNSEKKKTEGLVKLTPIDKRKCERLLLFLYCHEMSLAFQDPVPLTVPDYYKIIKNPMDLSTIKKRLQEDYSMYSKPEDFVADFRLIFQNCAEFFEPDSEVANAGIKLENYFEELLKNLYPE
Procedure: (§1) To investigate where these compounds bind on the TRIM24 or 33 PHD-BRD cassette, we performed waterLOGSY experiments using the wild-type and mutant reader domains (Table 4).
(§2) Table S19. WaterLOGSY buffer composition (10 mM Na/K phosphate buffer, PBS, pH 7.6).
(§3) Reagent Amount required per litre (g)
(§4) The buffer was filtered under vacuum through a 0.2 µm filter paper (Sartorius UK) before use and stored at 4 °C. Proteins were buffer exchanged from HEPES storage buffer into PBS buffer (0.9% NaCl, pH 7.6) using GE Healthcare PD SpinTrap G-25 columns. For each compound, a water-suppressed 1H spectrum was recorded as a reference, followed by waterLOGSY spectra of the compound in the absence and presence of the specified protein. Samples were prepared to a total sample volume of 160 µL in PBS buffer (pH 7.6), with 500 µM compound (unless otherwise specified) from 50 mM DMSO-D6 stock solutions, 10% D2O for signal locking, and 20 µM protein (unless otherwise specified) for samples with protein. After loading into 3 mm Hilgenberg NMR tubes for Bruker Match™ system, samples were briefly centrifuged in a manual benchtop rotor. Spectra were recorded on a Bruker AVIII 700 MHz spectrometer with inverse TCI cryoprobe using a standard waterLOGSY pulse sequence.4 Peaks were assigned using DMSO-D6 as a reference peak at 2.5 ppm.

TRIM24 WT = target: T5, TRIM24 WT (Homo sapiens, UniProt O15164); test: Qualitative WaterLOGSY binding; set-up: key: ✓: √ is assigned to compounds that showed binding; ? is assigned when the result was ambiguous; × is assigned when no-binding was observed; conditions: 500 µM compound, 20 µM protein
T5 construct: His6-TRIM24 (BRD-PHD); made in house; host or cells: E. coli BL21 (DE3) Gold
T5 sequence (O15164 with tags, fused parts or gaps): T1 sequence (O15164 with tags, fused parts or gaps)
Procedure: as §1, §2, §3, §4

TRIM33α N1039F = target: T6, TRIM33α N1039F (Homo sapiens, UniProt Q9UPN9, N1039F); test: Qualitative WaterLOGSY binding; set-up: key: ✓: √ is assigned to compounds that showed binding; ? is assigned when the result was ambiguous; × is assigned when no-binding was observed; conditions: 500 µM compound, 20 µM protein
T6 construct: The TRIM33β cassette (residues 888–1127) was expressed; made in house; host or cells: E. coli BL21 (DE3) Gold
T6 sequence (Q9UPN9 888-1127 N1039F): T2 sequence (Q9UPN9 888-1127) with N152F
Procedure: as §1, §2, §3, §4

TRIM33α WT = target: T7, TRIM33α WT (Homo sapiens, UniProt Q9UPN9); test: Qualitative WaterLOGSY binding; set-up: key: ✓: √ is assigned to compounds that showed binding; ? is assigned when the result was ambiguous; × is assigned when no-binding was observed; conditions: 500 µM compound, 20 µM protein
T7 construct: The TRIM33β cassette (residues 888–1127) was expressed; made in house; host or cells: E. coli BL21 (DE3) Gold
T7 sequence (Q9UPN9 888-1127): T2 sequence (Q9UPN9 888-1127)
Procedure: as §1, §2, §3, §4

TRIM33β N1039F = target: T8, TRIM33β N1039F (Homo sapiens, UniProt Q9UPN9, N1039F); test: Qualitative WaterLOGSY binding; set-up: key: ✓: √ is assigned to compounds that showed binding; ? is assigned when the result was ambiguous; × is assigned when no-binding was observed; conditions: 500 µM compound, 20 µM protein
T8 construct: The TRIM33β cassette (residues 888–1127) was expressed; made in house; host or cells: E. coli BL21 (DE3) Gold
T8 sequence (Q9UPN9 888-1110 isoform Q9UPN9-2 N1039F): T3 sequence (Q9UPN9 888-1110 isoform Q9UPN9-2 limits assumed) with N152F
Procedure: as §1, §2, §3, §4

TRIM33β WT = target: T9, TRIM33β WT (Homo sapiens, UniProt Q9UPN9); test: Qualitative WaterLOGSY binding; set-up: key: ✓: √ is assigned to compounds that showed binding; ? is assigned when the result was ambiguous; × is assigned when no-binding was observed; conditions: 500 µM compound, 20 µM protein
T9 construct: The TRIM33β cassette (residues 888–1127) was expressed; made in house; host or cells: E. coli BL21 (DE3) Gold
T9 sequence (Q9UPN9 888-1110 isoform Q9UPN9-2 limits assumed): T3 sequence (Q9UPN9 888-1110 isoform Q9UPN9-2 limits assumed)
Source text: To determine whether compounds 3–7 are genuine ligands for TRIM33, we employed an AlphaScreen TruHits screen.[58] The TruHits screen includes streptavidin-coated donor beads and biotinylated acceptor beads, which interact to generate a signal. Compounds that interfere with this control signal, such as fluorescence quenchers, insoluble light scatterers, ^1O2 quenchers, and biotin mimetics, can be identified using this approach. In the TruHits screen,[59] significant assay interference was observed from all five compounds (3–7, Table S21), meaning that AlphaScreen data generated for these compounds are unreliable. We therefore sought to investigate TRIM33 binding of compounds 3 and 4 using ITC and waterLOGSY approaches (Figures S3–6). These compounds were selected as they have a range of reported IC50 values for TRIM33. […] To determine whether these compounds are weak binders to TRIM33β, we subjected them to a waterLOGSY assay against TRIM33β. […] However, the use of different protein isoforms may account for some of the observed discrepancies.
as §1, §2, §3, §4

BRPF1 BRD = conditions: read-out: BRPF Kd (ITC); cited from earlier work
[1] = peptide in assay H31-27K9Me3 (PHD)
[2] = peptide in assay H31-27K9Me3K18Ac (DUAL)
[3] = peptide in assay H31-27K18Ac (BRD)

| Compound | IC50 (TRIM24 PHD-BRD; [1]) [µM] | IC50 (TRIM24 PHD-BRD; [2]) [µM] | IC50 (TRIM24 PHD-BRD; [3]) [µM] | IC50 (TRIM33α PHD-BRD; [1]) [µM] | IC50 (TRIM33α PHD-BRD; [2]) [µM] | IC50 (TRIM33α PHD-BRD; [3]) [µM] | IC50 (TRIM33β PHD-BRD; [1]) [µM] | IC50 (TRIM33β PHD-BRD; [2]) [µM] | IC50 (TRIM33β PHD-BRD; [3]) [µM] | WaterLOGSY binding TRIM24 N980F (TRIM24 N980F) | WaterLOGSY binding TRIM24 WT (TRIM24 WT) | WaterLOGSY binding TRIM33α N1039F (TRIM33α N1039F) | WaterLOGSY binding TRIM33α WT (TRIM33α WT) | WaterLOGSY binding TRIM33β N1039F (TRIM33β N1039F) | WaterLOGSY binding TRIM33β WT (TRIM33β WT) | Kd (BRPF1 BRD) [µM] |
| --- | --- | --- | --- | --- | --- | --- | --- | --- | --- | --- | --- | --- | --- | --- | --- | --- |
| CC(C)(C)Nc1c(-c2c[nH]c3ncccc23)nc2ccccn12 [Compound 7] | 105 | 58 | 43.8 | > 250 | > 250 | > 250 | > 250 | > 250 | > 250 | – | – | – | – | – | – | – |
| Cn1c(=O)n(C)c2cc(CNCCc3ccc(S(N)(=O)=O)cc3)ccc21 [Compound 8] | – | – | – | – | – | – | – | – | – | × | ✓ | ✓ | ✓ | ? | ✓ | – |
| O=C(CN1CCOC(c2cncc(-c3cccc(F)c3)n2)C1)NCc1ccccn1 (stereo not shown) [Compound 9] | – | – | – | – | – | – | – | – | – | × | × | ✓ | ✓ | × | ✓ | – |
| O=C(Nc1ccccc1)Nc1ccc2cccnc2c1 [Compound 10] | – | – | – | – | – | – | – | – | – | ✓ | ✓ | ✓ | ✓ | ✓ | ✓ | – |
| Cc1cc2c(NC(=O)Nc3ccccc3)cccc2nn1 [Compound 11] | – | – | – | – | – | – | – | – | – | ✓ | ✓ | ✓ | ✓ | ✓ | ✓ | – |
| CCCOc1cc(OCCCCN(C)C)cc(Oc2cc3c(cc2NS(=O)(=O)c2ccc(OC)c(OC)c2)n(C)c(=O)n3C)c1 [IACS-9571] | – | – | – | – | – | – | – | – | – | – | – | – | – | – | – | 0.014 |
